How the values were obtained:
[1] = target: T1, Voltage-gated inwardly rectifying potassium channel KCNH2 (Homo sapiens, UniProt Q12809); assay: K+ channel blocking activity in Chinese hamster ovary cells expressing HERG Kv11.1; assay type: functional, cell-based
[2] = target: T1, Voltage-gated inwardly rectifying potassium channel KCNH2; assay: (§1) K+ channel blocking activity in human embryonic kidney cells expressing HERG Kv11.1
[3] = target: T1, Voltage-gated inwardly rectifying potassium channel KCNH2; assay: as §1; assay type: functional, cell-based

T1 sequence (Q12809 whole entry): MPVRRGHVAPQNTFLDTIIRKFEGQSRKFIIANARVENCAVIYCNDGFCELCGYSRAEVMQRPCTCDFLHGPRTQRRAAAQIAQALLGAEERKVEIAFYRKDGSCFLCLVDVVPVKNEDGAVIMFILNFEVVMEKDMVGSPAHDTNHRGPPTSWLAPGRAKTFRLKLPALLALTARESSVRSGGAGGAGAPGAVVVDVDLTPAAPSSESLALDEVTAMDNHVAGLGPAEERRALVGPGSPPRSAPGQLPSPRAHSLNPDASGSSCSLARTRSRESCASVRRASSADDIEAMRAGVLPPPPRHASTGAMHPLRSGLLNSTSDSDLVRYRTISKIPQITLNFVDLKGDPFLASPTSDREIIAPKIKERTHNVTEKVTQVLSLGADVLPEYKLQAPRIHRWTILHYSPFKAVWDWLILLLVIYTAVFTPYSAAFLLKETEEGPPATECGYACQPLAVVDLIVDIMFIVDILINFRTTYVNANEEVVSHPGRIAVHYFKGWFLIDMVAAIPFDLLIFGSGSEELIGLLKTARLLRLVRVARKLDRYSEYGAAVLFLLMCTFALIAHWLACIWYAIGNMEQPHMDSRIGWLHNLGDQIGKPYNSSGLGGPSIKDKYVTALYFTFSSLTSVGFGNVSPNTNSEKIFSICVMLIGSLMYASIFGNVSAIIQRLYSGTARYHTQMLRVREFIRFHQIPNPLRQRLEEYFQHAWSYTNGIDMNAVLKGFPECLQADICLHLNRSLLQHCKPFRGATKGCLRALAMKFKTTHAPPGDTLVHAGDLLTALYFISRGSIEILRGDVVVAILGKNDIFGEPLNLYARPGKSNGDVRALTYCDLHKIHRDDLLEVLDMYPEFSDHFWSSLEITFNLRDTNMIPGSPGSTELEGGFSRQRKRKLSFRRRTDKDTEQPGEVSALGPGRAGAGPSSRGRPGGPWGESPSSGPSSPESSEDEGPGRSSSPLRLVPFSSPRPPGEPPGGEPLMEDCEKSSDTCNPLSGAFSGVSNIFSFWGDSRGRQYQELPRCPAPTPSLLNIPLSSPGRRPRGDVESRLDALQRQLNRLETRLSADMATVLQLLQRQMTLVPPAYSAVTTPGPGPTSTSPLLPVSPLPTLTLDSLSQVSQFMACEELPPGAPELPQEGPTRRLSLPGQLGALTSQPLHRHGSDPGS

Row | SMILES | IC50 [1] [µM] | also measured
1 | CN1CCN(CCCCN2C(=O)CN(/N=C/c3ccc(-c4ccc(Cl)cc4)o3)C2=O)CC1 [AZIMILIDE] | 0.56 | –
2 | COc1c(N2CCNC(C)C2)c(F)cc2c(=O)c(C(=O)O)cn(C3CC3)c12 (centres undefined) [GATIFLOXACIN] | 130 | –
3 | CN(c1nccc(=O)[nH]1)C1CCN(c2nc3ccccc3n2Cc2ccc(F)cc2)CC1 [MIZOLASTINE] | – | IC50 [2]: 0.35 µM
4 | C[C@@H]1CN(c2c(F)c(N)c3c(=O)c(C(=O)O)cn(C4CC4)c3c2F)C[C@H](C)N1 [SPARFLOXACIN] | – | IC50 [3]: 34.4 µM

Source: ChEMBL document CHEMBL1135758, “Toward a pharmacophore for drugs inducing the long QT syndrome: insights from a CoMFA study of HERG K(+) channel blockers” (J Med Chem, 2002)
